The molecules below were run against T1, Human Polθ polymerase domain (aa1820-2590) (Homo sapiens, UniProt O75417) (assay: Polθ Polymerase Domain Kinact/KI Assay (PicoGreen)). Settings: 0.8 nM Polθ, 100 nM DNA substrate, kobs vs [I] fit for 2-step covalent inhibitor.
T1 construct: Human Polθ polymerase domain (aa1820-2590) was expressed in E. coli; made in house; host or cells: E. coli
T1 sequence (O75417 1820-2590): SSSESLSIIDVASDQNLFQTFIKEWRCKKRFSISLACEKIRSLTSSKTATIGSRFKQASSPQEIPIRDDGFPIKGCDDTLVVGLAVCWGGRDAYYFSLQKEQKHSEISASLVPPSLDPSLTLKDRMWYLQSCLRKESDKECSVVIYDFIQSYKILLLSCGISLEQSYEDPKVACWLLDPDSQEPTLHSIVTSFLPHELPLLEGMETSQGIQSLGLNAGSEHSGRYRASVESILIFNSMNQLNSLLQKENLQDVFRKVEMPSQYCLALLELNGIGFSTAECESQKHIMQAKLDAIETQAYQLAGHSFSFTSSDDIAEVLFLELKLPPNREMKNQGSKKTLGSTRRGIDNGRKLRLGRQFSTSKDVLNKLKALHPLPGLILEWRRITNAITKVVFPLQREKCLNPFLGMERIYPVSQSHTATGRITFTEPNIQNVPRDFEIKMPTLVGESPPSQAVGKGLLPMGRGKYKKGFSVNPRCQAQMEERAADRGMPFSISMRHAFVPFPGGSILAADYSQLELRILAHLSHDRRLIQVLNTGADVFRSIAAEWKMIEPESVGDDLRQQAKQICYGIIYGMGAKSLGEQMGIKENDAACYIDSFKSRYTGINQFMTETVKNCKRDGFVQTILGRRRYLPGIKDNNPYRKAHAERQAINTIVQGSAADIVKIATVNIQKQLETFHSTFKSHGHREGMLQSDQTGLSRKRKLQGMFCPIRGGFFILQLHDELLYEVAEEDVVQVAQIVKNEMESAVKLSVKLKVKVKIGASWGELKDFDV
Assay type: biochemical
Protocol: Polθ Polymerase Domain Kinact/KI Assay
A PicoGreen assay was used to measure the Kinact and KI values of covalent compounds that inhibit the activity of Polθ in vitro.
Human Polθ polymerase domain (aa1820-2590) was expressed in E. coli, purified, aliquoted and stored at −80° C. until required. Polθ substrate was generated from a 1.2:1 mix of DNA II Short to DNA II Long to give a final concentration of […] substrate in annealing buffer (20 mM Tris pH 7.5, 50 mM NaCl). The substrate was heated in […] aliquots to 95° C. in a heating block for 5 min before the heating block switched off, the reaction left to cool to rt and stored at −20° C. until required.
Assay measurements were performed with 1× buffer comprising 25 mM Tris pH 7.5, 12.5 mM NaCl, […], 5% (v/v) glycerol, 0.01% v/v Triton x-100, 0.1 mg/ml BSA, 1 mM DTT. Test compounds were prepared by dilution in 100% DMSO to give a 12 μM intermediate stock of each (100× final top concentration). 100 nL of 23×1:1.5-fold serial dilutions and a DMSO only control were dispensed using the Tecan dispenser into Greiner 384 well black low volume plates (product code 784076). DMSO concentration was maintained at 1% of the final assay volume by back filling with DMSO.
2× Working stock of substrate (200 nM of DNA substrate and […] dNTPs) and enzyme ([…] PolΘ) were made up in assay buffer. 5 μL/well of both enzyme and substrate 2× solutions were dispensed using a Tempest dispenser (Formulatrix) into assay plates that had been pre-dispensed with compound to give a final assay concentration of 100 nM DNA substrate, […] dNTPs and 0.8 nM Polθ. To stop the reaction, […] of a solution containing 25 mM Tris-HCl pH 7.5 and 20 mM EDTA was added at […] (t=0, 2.5, 5, 7.5, 10, 12.5, 15, 20, 25, 30, 35, 40, 45, 50, 55 and 60 min) using the Tempest's time delay function. The plates were covered during the time course to prevent evaporation. After completing the assay, 5 μL of detection reagent (25 mM Tris-HCl pH 7.5 and 2.5% (v/v) PicoGreen) was dispensed into the wells using a Tempest liquid handler (Formulatrix) and plates subsequently read on the CLARIOstar Plus (BMG Labtech) using the default optical settings for fluorescein and the auto gain/focus settings.
All data analysis was carried out using GraphPad Prism V.8 (GraphPad Software Inc, San Diego, CA) Time course data for each inhibitor concentration was fitted to equation 1 to determine kobs values.^1 Any time points where the control (DMSO alone) reaction was no longer linear were excluded from the analysis. 1) Evaluation of Enzyme Inhibitors in Drug Discovery (Ch9), R. A Copeland, Wiley, 2nd Edition 2013.
A secondary plot of kobs vs [I] is used to determine the Kinact and KI parameters (for a 2-step covalent inhibitor) by fitting to equation 2.^1

Row | Structure (SMILES) | Kinact/Kl [M⁻¹ s⁻¹]
1 | C=CC(=O)N1CC2(C1)N[C@H](C)CN(CCN1C[C@H]3CC(=O)N(c4cc(C(F)(F)F)cc(C)n4)[C@@H]3C(=O)N(C)c3cccc(F)c31)C2C (mixture of isomers) [Example 37b, (3aR,11aS)-5-(2-((6R,9R/S)-2-acryloyl-6,9-dimethyl-2,5,8-triazaspiro[3.5]nonan-8-yl)ethyl)-6-fluoro-10-methyl-1-(6-methyl-4-(trifluoromethyl)pyridin-2-yl)-1,3a,4,5,10,11a-hexahydro-2H-benzo[b]pyrrolo[2,3-f][1,4]diazocine-2,11(3H)-dione] | 580000
2 | C=CC(=O)N1CC(=O)N2CCN(CCN3C[C@H]4CC(=O)N(c5cc(C(F)(F)F)cc(C)n5)[C@@H]4C(=O)N(C)c4cccc(F)c43)CC2C1 (mixture of isomers) [Example 62a, (3aR,11aS)-5-(2-((R/S)-8-acryloyl-6-oxooctahydro-2H-pyrazino[1,2-a]pyrazin-2-yl)ethyl)-6-fluoro-10-methyl-1-(6-methyl-4-(trifluoromethyl)pyridin-2-yl)-1,3a,4,5,10,11a-hexahydro-2H-benzo[b]pyrrolo[2,3-f][1,4]diazocine-2,11(3H)-dione] | 3.31e+06
3 | C=CC(=O)N1CC(=O)N2CCN(CCN3C[C@H]4CC(=O)N(c5cc(C(F)(F)F)cc(C)n5)[C@@H]4C(=O)N(C)c4cccc(F)c43)CC2C1 (mixture of isomers) [Example 62b, (3aR,11aS)-5-(2-((S/R)-8-acryloyl-6-oxooctahydro-2H-pyrazino[1,2-a]pyrazin-2-yl)ethyl)-6-fluoro-10-methyl-1-(6-methyl-4-(trifluoromethyl)pyridin-2-yl)-1,3a,4,5,10,11a-hexahydro-2H-benzo[b]pyrrolo[2,3-f][1,4]diazocine-2,11(3H)-dione] | 1.26e+06
4 | Cc1cc(C(F)(F)F)cc(N2C(=O)C[C@@H]3CN(Cc4cn5c(n4)CN(C(=O)CCl)C(C)C5)c4c(Cl)cccc4N(C)C(=O)[C@H]32)n1 (mixture of isomers) [Example 73a, (3aR,11aS)-6-chloro-5-(((R/S)-7-(2-chloroacetyl)-6-methyl-5,6,7,8-tetrahydroimidazo[1,2-a]pyrazin-2-yl)methyl)-10-methyl-1-(6-methyl-4-(trifluoromethyl)pyridin-2-yl)-1,3a,4,5,10,11a-hexahydro-2H-benzo[b]pyrrolo[2,3-f][1,4]diazocine-2,11(3H)-dione] | 39000
5 | Cc1cc(C(F)(F)F)cc(N2C(=O)C[C@@H]3CN(Cc4cn5c(n4)CN(C(=O)CCl)C(C)C5)c4c(Cl)cccc4N(C)C(=O)[C@H]32)n1 (mixture of isomers) [Example 73b, (3aR,11aS)-6-chloro-5-(((S/R)-7-(2-chloroacetyl)-6-methyl-5,6,7,8-tetrahydroimidazo[1,2-a]pyrazin-2-yl)methyl)-10-methyl-1-(6-methyl-4-(trifluoromethyl)pyridin-2-yl)-1,3a,4,5,10,11a-hexahydro-2H-benzo[b]pyrrolo[2,3-f][1,4]diazocine-2,11(3H)-dione] | 790000
6 | C=CC(=O)N1CCN2CCN(C(=O)CN3C[C@H]4CC(=O)N(c5cc(C(F)(F)F)cc(C)n5)[C@@H]4C(=O)N(C)c4cccc(F)c43)CC2C1 (mixture of isomers) [Example 76a, (3aR,11aS)-5-(2-((R/S)-8-acryloyloctahydro-2H-pyrazino[1,2-a]pyrazin-2-yl)-2-oxoethyl)-6-fluoro-10-methyl-1-(6-methyl-4-(trifluoromethyl)pyridin-2-yl)-1,3a,4,5,10,11a-hexahydro-2H-benzo[b]pyrrolo[2,3-f][1,4]diazocine-2,11(3H)-dione] | 220000
7 | C=CC(=O)N1CCN2CCN(C(=O)CN3C[C@H]4CC(=O)N(c5cc(C(F)(F)F)cc(C)n5)[C@@H]4C(=O)N(C)c4cccc(F)c43)CC2C1 (mixture of isomers) [Example 76b, (3aR,11aS)-5-(2-((S/R)-8-acryloyloctahydro-2H-pyrazino[1,2-a]pyrazin-2-yl)-2-oxoethyl)-6-fluoro-10-methyl-1-(6-methyl-4-(trifluoromethyl)pyridin-2-yl)-1,3a,4,5,10,11a-hexahydro-2H-benzo[b]pyrrolo[2,3-f][1,4]diazocine-2,11(3H)-dione] | 940000
8 | C=CC(=O)N1CCC(N2CCC(CN3C[C@H]4CC(=O)N(c5cc(C(F)(F)F)cc(C)n5)[C@@H]4C(=O)N(C)c4cccc(C)c43)CC2)C1 (mixture of isomers) [Example 95a, (3aR,11aS)-5-((1-((S/R)-1-acryloylpyrrolidin-3-yl)piperidin-4-yl)methyl)-6,10-dimethyl-1-(6-methyl-4-(trifluoromethyl)pyridin-2-yl)-1,3a,4,5,10,11a-hexahydro-2H-benzo[b]pyrrolo[2,3-f][1,4]diazocine-2,11(3H)-dione] | 2.63e+06
9 | C=CC(=O)N1CCC(N2CCC(CN3C[C@H]4CC(=O)N(c5cc(C(F)(F)F)cc(C)n5)[C@@H]4C(=O)N(C)c4cccc(C)c43)CC2)C1 (mixture of isomers) [Example 95b, (3aR,11aS)-5-((1-((R/S)-1-acryloylpyrrolidin-3-yl)piperidin-4-yl)methyl)-6,10-dimethyl-1-(6-methyl-4-(trifluoromethyl)pyridin-2-yl)-1,3a,4,5,10,11a-hexahydro-2H-benzo[b]pyrrolo[2,3-f][1,4]diazocine-2,11(3H)-dione] | 2.5e+06
10 | C=CC(=O)N1CCN2C(=O)CN(CCN3C[C@H]4CC(=O)N(c5cc(C(F)(F)F)cc(C)n5)[C@@H]4C(=O)N(C)c4cccc(F)c43)CC2C1 (mixture of isomers) [Example 116a, (3aR,11aS)-5-(2-((R/S)-8-acryloyl-4-oxooctahydro-2H-pyrazino[1,2-a]pyrazin-2-yl)ethyl)-6-fluoro-10-methyl-1-(6-methyl-4-(trifluoromethyl)pyridin-2-yl)-1,3a,4,5,10,11a-hexahydro-2H-benzo[b]pyrrolo[2,3-f][1,4]diazocine-2,11(3H)-dione] | 1.17e+06
11 | C=CC(=O)N1Cc2cc(CN3C[C@H]4CC(=O)N(c5cc(C(F)(F)F)cc(C)n5)[C@@H]4C(=O)N(C)c4cccc(Cl)c43)cnc2C1COC (mixture of isomers) [Example 236, (3aR,11aS)-5-(((S/R)-6-acryloyl-7-(methoxymethyl)-6,7-dihydro-5H-pyrrolo[3,4-b]pyridin-3-yl)methyl)-6-chloro-10-methyl-1-(6-methyl-4-(trifluoromethyl)pyridin-2-yl)-1,3a,4,5,10,11a-hexahydro-2H-benzo[b]pyrrolo[2,3-f][1,4]diazocine-2,11(3H)-dione] | 1.24e+06

Reference: patent US20250230165A1, “HETEROCYCLIC COMPOUNDS FOR USE IN THE TREATMENT OF CANCER” (ARTIOS PHARMA LIMITED, priority 2021, published 2025)
